Data published in ChEMBL document CHEMBL3885881, “DrugMatrix”.

Organism: Rattus norvegicus
Experiment: DrugMatrix - Regimen: Daily Repeat
Assay type: toxicity, organism-based, Sprague-Dawley
Set-up: regimen Daily Repeat, gender Male, age 6-8 weeks
Conditions: in vivo, po, route oral GAVAGE, […]; for ABSOLUTE BASOPHIL / ABSOLUTE EOSINOPHIL / ABSOLUTE LYMPHOCYTE / ABSOLUTE MONOCYTE / ABSOLUTE SEGMENTED NEUTROPHIL / BASOPHIL / EOSINOPHIL / ERYTHROCYTE COUNT / HEMATOCRIT / HEMOGLOBIN / LEUKOCYTE COUNT / LYMPHOCYTE / MEAN CORPUSCULAR HEMOGLOBIN / MEAN CORPUSCULAR HEMOGLOBIN CONCENTRATION / MEAN CORPUSCULAR VOLUME / MONOCYTE / NEUTROPHIL / NUCLEATED RED BLOOD CELLS / PLATELET COUNT: tissue Blood; for ALANINE AMINOTRANSFERASE / ALBUMIN / ALKALINE PHOSPHATASE / ASPARTATE AMINOTRANSFERASE / BLOOD UREA NITROGEN / CARBON DIOXIDE / CHLORIDE / CHOLESTEROL / CREATINE PHOSPHOKINASE / CREATININE / GLUCOSE / LACTATE DEHYDROGENASE / LIPASE / PHOSPHORUS / POTASSIUM / SODIUM / TOTAL BILIRUBIN / TOTAL PROTEIN / URIC ACID: tissue Plasma
[1] = 3 mg/kg, 72 h, dose level Low, time 3 day
[2] = 3 mg/kg, 120 h, dose level Low, time 5 day
[3] = 250 mg/kg, 72 h, dose level High, time 3 day
[4] = 250 mg/kg, 120 h, dose level High, time 5 day

N#Cc1ccc(C(c2ccc(C#N)cc2)n2cncn2)cc1 [LETROZOLE]
ABSOLUTE BASOPHIL [1]: 0 CELLS/uL | ABSOLUTE EOSINOPHIL [1]: 184 CELLS/uL | ABSOLUTE LYMPHOCYTE [1]: 10672.33 CELLS/uL | ABSOLUTE MONOCYTE [1]: 0 CELLS/uL | ABSOLUTE SEGMENTED NEUTROPHIL [1]: 1877 CELLS/uL | BASOPHIL [1]: 0% | EOSINOPHIL [1]: 0.67% | ERYTHROCYTE COUNT [1]: 4.51 x10E6/uL | HEMATOCRIT [1]: 28.03% | HEMOGLOBIN [1]: 11.33 G/DL | LEUKOCYTE COUNT [1]: 12.73 x10E3/uL | LYMPHOCYTE [1]: 88.67% | MEAN CORPUSCULAR HEMOGLOBIN [1]: 25.07 pg | MEAN CORPUSCULAR HEMOGLOBIN CONCENTRATION [1]: 40.37 G/DL | MEAN CORPUSCULAR VOLUME [1]: 62.1 fL | MONOCYTE [1]: 0% | NEUTROPHIL [1]: 10.67% | NUCLEATED RED BLOOD CELLS [1]: 0 /100WBC | PLATELET COUNT [1]: 541.33 x10E3/uL | ALANINE AMINOTRANSFERASE [1]: 85.67 u/L | ALBUMIN [1]: 4.07 G/DL | ALKALINE PHOSPHATASE [1]: 351.67 u/L | ASPARTATE AMINOTRANSFERASE [1]: 114.67 u/L | BLOOD UREA NITROGEN [1]: 15 mg/dL | CARBON DIOXIDE [1]: 26.67 mmol/L | CHLORIDE [1]: 105 MEQ/L | CHOLESTEROL [1]: 72.33 mg/dL | CREATINE PHOSPHOKINASE [1]: 577.67 u/L | CREATININE [1]: 0.17 mg/dL | GLUCOSE [1]: 196.67 mg/dL | LACTATE DEHYDROGENASE [1]: 171.67 u/L | LIPASE [1]: 8.33 u/L | PHOSPHORUS [1]: 13.4 mg/dL | POTASSIUM [1]: 5.91 MEQ/L | SODIUM [1]: 144 MEQ/L | TOTAL BILIRUBIN [1]: 0.2 mg/dL | TOTAL PROTEIN [1]: 5.4 G/DL | URIC ACID [1]: 1.37 mg/dL | ABSOLUTE BASOPHIL [2]: 0 CELLS/uL | ABSOLUTE EOSINOPHIL [2]: 0 CELLS/uL | ABSOLUTE LYMPHOCYTE [2]: 13516.33 CELLS/uL | ABSOLUTE MONOCYTE [2]: 50.67 CELLS/uL | ABSOLUTE SEGMENTED NEUTROPHIL [2]: 1033 CELLS/uL | BASOPHIL [2]: 0% | EOSINOPHIL [2]: 0% | ERYTHROCYTE COUNT [2]: 5.59 x10E6/uL | HEMATOCRIT [2]: 35.97% | HEMOGLOBIN [2]: 14.1 G/DL | LEUKOCYTE COUNT [2]: 14.6 x10E3/uL | LYMPHOCYTE [2]: 92.67% | MEAN CORPUSCULAR HEMOGLOBIN [2]: 25.23 pg | MEAN CORPUSCULAR HEMOGLOBIN CONCENTRATION [2]: 39.17 G/DL | MEAN CORPUSCULAR VOLUME [2]: 64.33 fL | MONOCYTE [2]: 0.33% | NEUTROPHIL [2]: 7% | NUCLEATED RED BLOOD CELLS [2]: 0 /100WBC | PLATELET COUNT [2]: 1165 x10E3/uL | ALANINE AMINOTRANSFERASE [2]: 55 u/L | ALBUMIN [2]: 4.23 G/DL | ALKALINE PHOSPHATASE [2]: 407 u/L | ASPARTATE AMINOTRANSFERASE [2]: 79.33 u/L | BLOOD UREA NITROGEN [2]: 18 mg/dL | CARBON DIOXIDE [2]: 27.67 mmol/L | CHLORIDE [2]: 103 MEQ/L | CHOLESTEROL [2]: 69.33 mg/dL | CREATINE PHOSPHOKINASE [2]: 252.67 u/L | CREATININE [2]: 0.22 mg/dL | GLUCOSE [2]: 176 mg/dL | LACTATE DEHYDROGENASE [2]: 155.33 u/L | LIPASE [2]: 11.33 u/L | PHOSPHORUS [2]: 11.3 mg/dL | POTASSIUM [2]: 6.08 MEQ/L | SODIUM [2]: 143.2 MEQ/L | TOTAL BILIRUBIN [2]: 0.2 mg/dL | TOTAL PROTEIN [2]: 5.8 G/DL | URIC ACID [2]: 1.3 mg/dL | ABSOLUTE BASOPHIL [3]: 0 CELLS/uL | ABSOLUTE EOSINOPHIL [3]: 0 CELLS/uL | ABSOLUTE LYMPHOCYTE [3]: 16113.33 CELLS/uL | ABSOLUTE MONOCYTE [3]: 104 CELLS/uL | ABSOLUTE SEGMENTED NEUTROPHIL [3]: 1216 CELLS/uL | BASOPHIL [3]: 0% | EOSINOPHIL [3]: 0% | ERYTHROCYTE COUNT [3]: 5.67 x10E6/uL | HEMATOCRIT [3]: 35.07% | HEMOGLOBIN [3]: 14.07 G/DL | LEUKOCYTE COUNT [3]: 17.43 x10E3/uL | LYMPHOCYTE [3]: 92% | MEAN CORPUSCULAR HEMOGLOBIN [3]: 24.8 pg | MEAN CORPUSCULAR HEMOGLOBIN CONCENTRATION [3]: 40.1 G/DL | MEAN CORPUSCULAR VOLUME [3]: 61.83 fL | MONOCYTE [3]: 0.67% | NEUTROPHIL [3]: 7.33% | NUCLEATED RED BLOOD CELLS [3]: 0 /100WBC | PLATELET COUNT [3]: 1266.33 x10E3/uL | ALANINE AMINOTRANSFERASE [3]: 69 u/L | ALBUMIN [3]: 3.97 G/DL | ALKALINE PHOSPHATASE [3]: 487 u/L | ASPARTATE AMINOTRANSFERASE [3]: 117 u/L | BLOOD UREA NITROGEN [3]: 13 mg/dL | CARBON DIOXIDE [3]: 29 mmol/L | CHLORIDE [3]: 102.33 MEQ/L | CHOLESTEROL [3]: 68.33 mg/dL | CREATINE PHOSPHOKINASE [3]: 365.33 u/L | CREATININE [3]: 0.24 mg/dL | GLUCOSE [3]: 140.67 mg/dL | LACTATE DEHYDROGENASE [3]: 544.67 u/L | LIPASE [3]: 12.33 u/L | PHOSPHORUS [3]: 11.13 mg/dL | POTASSIUM [3]: 5.99 MEQ/L | SODIUM [3]: 142.27 MEQ/L | TOTAL BILIRUBIN [3]: 0.23 mg/dL | TOTAL PROTEIN [3]: 5.47 G/DL | URIC ACID [3]: 1.4 mg/dL | ABSOLUTE BASOPHIL [4]: 0 CELLS/uL | ABSOLUTE EOSINOPHIL [4]: 0 CELLS/uL | ABSOLUTE LYMPHOCYTE [4]: 11610.33 CELLS/uL | ABSOLUTE MONOCYTE [4]: 237.67 CELLS/uL | ABSOLUTE SEGMENTED NEUTROPHIL [4]: 1485.33 CELLS/uL | BASOPHIL [4]: 0% | EOSINOPHIL [4]: 0% | ERYTHROCYTE COUNT [4]: 6.3 x10E6/uL | HEMATOCRIT [4]: 38.7% | HEMOGLOBIN [4]: 15.17 G/DL | LEUKOCYTE COUNT [4]: 13.33 x10E3/uL | LYMPHOCYTE [4]: 87.33% | MEAN CORPUSCULAR HEMOGLOBIN [4]: 24.13 pg | MEAN CORPUSCULAR HEMOGLOBIN CONCENTRATION [4]: 39.23 G/DL | MEAN CORPUSCULAR VOLUME [4]: 61.5 fL | MONOCYTE [4]: 1.67% | NEUTROPHIL [4]: 11% | NUCLEATED RED BLOOD CELLS [4]: 0 /100WBC | PLATELET COUNT [4]: 1093.67 x10E3/uL | ALANINE AMINOTRANSFERASE [4]: 36.67 u/L | ALBUMIN [4]: 4.27 G/DL | ALKALINE PHOSPHATASE [4]: 295.33 u/L | ASPARTATE AMINOTRANSFERASE [4]: 110.67 u/L | BLOOD UREA NITROGEN [4]: 15.33 mg/dL | CARBON DIOXIDE [4]: 28.67 mmol/L | CHLORIDE [4]: 104.67 MEQ/L | CHOLESTEROL [4]: 55.67 mg/dL | CREATINE PHOSPHOKINASE [4]: 254 u/L | CREATININE [4]: 0.21 mg/dL | GLUCOSE [4]: 151.33 mg/dL | LACTATE DEHYDROGENASE [4]: 321.67 u/L | LIPASE [4]: 10.67 u/L | PHOSPHORUS [4]: 9.9 mg/dL | POTASSIUM [4]: 4.59 MEQ/L | SODIUM [4]: 146.27 MEQ/L | TOTAL BILIRUBIN [4]: 0.1 mg/dL | TOTAL PROTEIN [4]: 5.77 G/DL | URIC ACID [4]: 1.13 mg/dL
